From publication PMC10101059, “Rational Design of Stapled Antimicrobial Peptides to Enhance Stability and In Vivo Potency against Polymicrobial Sepsis” (Microbiology Spectrum, 2023) come the findings set out here.

One data set deals with human red blood cells. Format: cell-based. The method, then: The hemolytic assay was performed after approval from the institutional ethics committee (Academia Sinica Institutional Review Board [IRB]; ID no. AS-IRB02-111075). Blood was collected from healthy humans, and 50 μL of a 2% blood cell suspension in normal saline was treated with an equal volume of peptide at different concentrations. The mixture was then incubated at 37 ± 2°C for 1 h. Next, the cell suspension was centrifuged at 1,000 × g for 10 min. Percent hemolysis was estimated by the absorbance of treated and control supernatant samples at 540 nm ([23], [44]).

The next data set deals with Acinetobacter baumannii. Nature of the data set: microbe, parasite or virus in culture. Format: cell-based. Particulars: for MBC: read-out: MBC; for MIC: read-out: MIC. The method, then:
The antimicrobial assay was performed according to a modified National Committee for Clinical Laboratory Standards (NCCLS) protocol ([41], [42]). Briefly, 5 × 10^5 CFU/mL bacterial cells were treated with various peptide concentrations and incubated at 37 ± 2°C for 16 to 20 h. The lowest concentration with clear wells was recorded as the MIC for each test molecule. The clear wells were further plated in Mueller-Hinton agar (MHA) plates, followed by incubation overnight at 37 ± 2°C. After plating, the lowest concentration at which no growth was observed was recorded as the MBC. For the serum sensitivity assay, the antimicrobial activity of the peptides was tested in medium containing 50% human serum ([43], [44]). The antimicrobial assay was performed in the presence of physiological ions and glucose. The test media were supplemented with MgCl2 (1 mM), CaCl2 (2 mM), NaCl (150 mM), KCl (4.5 mM), NH4Cl (6 μM) ([45], [46]), or glucose (0.2%) ([47]), followed by routine antimicrobial assay as described previously. For the pH sensitivity assay, the antimicrobial assay was performed in media adjusted to pH values ranging from 4 to 12. To estimate the effects of temperature on antimicrobial activity, the peptide was incubated for 1 h at temperatures ranging from 40 to 100°C ([48]), followed by the antimicrobial assay as described above.

The next data set concerns Staphylococcus aureus. Format: cell-based. How it is done:
The antimicrobial assay was performed according to a modified National Committee for Clinical Laboratory Standards (NCCLS) protocol ([41], [42]). Briefly, 5 × 10^5 CFU/mL bacterial cells were treated with various peptide concentrations and incubated at 37 ± 2°C for 16 to 20 h. The lowest concentration with clear wells was recorded as the MIC for each test molecule. The clear wells were further plated in Mueller-Hinton agar (MHA) plates, followed by incubation overnight at 37 ± 2°C. After plating, the lowest concentration at which no growth was observed was recorded as the MBC. For the serum sensitivity assay, the antimicrobial activity of the peptides was tested in medium containing 50% human serum ([43], [44]).

The subject of a further data set is E. coli. Nature of the data set: microbe, parasite or virus in culture. Format: cell-based, Escherichia coli.
The test system of a further data set is MDR A. baumannii 2982. Description: microbe, parasite or virus in culture. Format: cell-based, Acinetobacter baumannii. How it is done: (§1) The FICI was measured using a standard checkerboard microdilution assay ([57]). Two-fold dilutions of antibiotics were made across the x axis, and two-fold peptide dilutions were made across the y axis. Next, bacteria were added at 5 × 10^5 CFU/well (A. baumannii), followed by incubation at 37 ± 2°C for 16 to 20 h. FIC indices were calculated according to the following equations: FICI = FIC1 + FIC2; FIC1 = (MIC12 combined)/MIC1; FIC2 = (MIC12 combined)/MIC2. The combined efficacy was estimated as follows: FICI ≤ 0.5, synergistic; 0.5 to 1, additive; 1 to 2, indifferent; ≥2, antagonistic.

The test system of another data set is MDR A. baumannii 14B001. Nature of the data set: microbe, parasite or virus in culture. The class given is cell-based, Acinetobacter baumannii. The method, then:
as §1

The next data set relates to MDR A. baumannii 1607. Description: microbe, parasite or virus in culture. The class given is cell-based, Acinetobacter baumannii. How it is done: as §1
The subject of another data set is MDR A. baumannii 2962. Description: microbe, parasite or virus in culture. Format: cell-based, Acinetobacter baumannii. How it is done:
as §1

The subject of another data set is MDR A. baumannii 1702. Description: microbe, parasite or virus in culture. Format: cell-based, Acinetobacter baumannii. The method, then:
as §1

Another data set deals with MDR A. baumannii 921. Description: microbe, parasite or virus in culture. Format: cell-based, Acinetobacter baumannii. How it is done: as §1
For the next data set, the system named is MDR A. baumannii 1019. Nature of the data set: microbe, parasite or virus in culture. The class given is cell-based, Acinetobacter baumannii. How it is done:
as §1

The next data set concerns MDR A. baumannii 2088. Description: Checkerboard microdilution assay (FICI). The class given is cell-based, Acinetobacter baumannii. How it is done: as §1
(In general: Broth dilution looks for growth in wells or tubes with falling amounts of substance.)

The test system of another data set is MDR A. baumannii 3618. Nature of the data set: Checkerboard microdilution assay (FICI). The class given is cell-based, Acinetobacter baumannii. How it is done: as §1
The subject of a further data set is MDR A. baumannii 2997. Nature of the data set: Checkerboard microdilution assay (FICI). Format: cell-based, Acinetobacter baumannii. The method, then: as §1
In the next data set the test system is MDR A. baumannii 1033. Nature of the data set: Checkerboard microdilution assay (FICI). Format: cell-based, Acinetobacter baumannii. How it is done: as §1
In the next data set the test system is MDR A. baumannii 2998. Description: Checkerboard microdilution assay (FICI). The class given is cell-based, Acinetobacter baumannii. How it is done: as §1
In a further data set the test system is NDM1 K. pneumoniae. Nature of the data set: microbe, parasite or virus in culture. Format: cell-based, Klebsiella pneumoniae.
Another data set concerns P. aeruginosae. Description: microbe, parasite or virus in culture. Format: cell-based, Pseudomonas aeruginosa.
For the next data set, the system named is E. aerogenes. Description: microbe, parasite or virus in culture. Format: cell-based, Enterobacter aerogenes.
The next data set concerns S enterica. Description: Checkerboard microdilution assay (FICI). The class given is cell-based, Salmonella enterica.
The mark [1] stands for this setting: MIC of each agent in combination, TP4-3 and D.
Setting [2] is: Acinetobacter baumannii, read-out: Single drug treatment MIC.

In brackets after ≈: the same amount, converted by molar mass. Bridge positions count the residues as written; N and C are the ends. Square brackets hold non-standard residues; d marks the D form. Peptide text beside a SMILES is read from it. R5 = C=CCCC[C@@](C)(N)C(=O)O

`CC[C@H](C)[C@H](NC(=O)[C@@H](NC(=O)[C@@H](NC(=O)[C@@H](N)Cc1ccccc1)[C@@H](C)CC)[C@@H](C)CC)C(=O)N[C@@H](CCCCN)C(=O)N[C@@H](CCCCN)C(=O)N[C@@H](CO)C(=O)NCC(=O)NCC(=O)N[C@@H](CC(C)C)C(=O)N[C@@H](Cc1ccccc1)C(=O)N[C@@H](CCCCN)C(=O)N[C@@H](CCCCN)C(=O)N[C@@H](CCCCN)C(=O)N[C@@H](C)C(=O)NCC(=O)N[C@@H](C)C(=O)N[C@]1(C)CCCC=CCCC[C@](C)(C(=O)N[C@H](C(=O)N[C@@H](CCCCN)C(=O)N[C@@H](CCCCN)C(=O)O)[C@@H](C)CC)NC(=O)[C@H](CCCCN)NC(=O)[C@H](CCCCN)NC(=O)[C@H](CCCCN)NC1=O` [TP4-1] (H-FIIIKKSGGLFKKKAGA[R5]KKK[R5]IKK-OH; staple 18-22; N-terminus and C-terminus assumed) displayed a 15% hemolysis concn in the data set with human red blood cells of more than 100 µM. Moreover, in the data set on Acinetobacter baumannii, the MBC was more than 25 µM and the MIC was more than 25 µM. In the data set with Staphylococcus aureus, this compound came in with an MBC of more than 25 µM and an MIC of more than 25 µM.
Compound `CC[C@H](C)[C@H](NC(=O)[C@@H](NC(=O)[C@@H](NC(=O)[C@@H](N)Cc1ccccc1)[C@@H](C)CC)[C@@H](C)CC)C(=O)N[C@@H](CCCCN)C(=O)N[C@@H](CCCCN)C(=O)N[C@@H](CO)C(=O)NCC(=O)NCC(=O)N[C@@H](CC(C)C)C(=O)N[C@]1(C)CCCC=CCCC[C@](C)(C(=O)NCC(=O)N[C@@H](C)C(=O)N[C@]2(C)CCCC=CCCC[C@](C)(C(=O)N[C@H](C(=O)N[C@@H](CCCCN)C(=O)N[C@@H](CCCCN)C(=O)O)[C@@H](C)CC)NC(=O)[C@H](CCCCN)NC(=O)[C@H](CCCCN)NC(=O)[C@H](CCCCN)NC2=O)NC(=O)[C@H](CCCCN)NC(=O)[C@H](CCCCN)NC(=O)[C@H](CCCCN)NC1=O` [TP4-2] (H-FIIIKKSGGL[R5]KKK[R5]GA[R5]KKK[R5]IKK-OH; staple 11-15, 18-22; N-terminus and C-terminus assumed) registered a 15% hemolysis concn in the data set with human red blood cells of more than 100 µM. Moreover, in the data set with Acinetobacter baumannii, the MBC is given as 12.5 µM (≈ 35.5 µg/mL) and the MIC stood at 12.5 µM (≈ 35.5 µg/mL). In the data set with Staphylococcus aureus, this compound gave an MBC of more than 25 µM and an MIC of more than 25 µM.
`CC[C@H](C)[C@H](NC(=O)[C@@H](NC(=O)[C@@H](N)Cc1ccccc1)[C@@H](C)CC)C(=O)N[C@]1(C)CCCC=CCCC[C@](C)(C(=O)NCC(=O)N[C@@H](CC(C)C)C(=O)N[C@]2(C)CCCC=CCCC[C@](C)(C(=O)NCC(=O)N[C@@H](C)C(=O)N[C@]3(C)CCCC=CCCC[C@](C)(C(=O)N[C@H](C(=O)N[C@@H](CCCCN)C(=O)N[C@@H](CCCCN)C(=O)O)[C@@H](C)CC)NC(=O)[C@H](CCCCN)NC(=O)[C@H](CCCCN)NC(=O)[C@H](CCCCN)NC3=O)NC(=O)[C@H](CCCCN)NC(=O)[C@H](CCCCN)NC(=O)[C@H](CCCCN)NC2=O)NC(=O)[C@H](CO)NC(=O)[C@H](CCCCN)NC(=O)[C@H](CCCCN)NC1=O` [TP4-4] (H-FII[R5]KKS[R5]GL[R5]KKK[R5]GA[R5]KKK[R5]IKK-OH; staple 4-8, 11-15, 18-22; N-terminus and C-terminus assumed) displayed a 15% hemolysis concn with human red blood cells of more than 100 µM. In the data set on Acinetobacter baumannii, the MBC came out at 12.5 µM (≈ 36.5 µg/mL) and the MIC turned out to be 12.5 µM (≈ 36.5 µg/mL). In the data set with Staphylococcus aureus, this compound returned an MBC of more than 25 µM and an MIC of more than 25 µM.
`C[C@H]1c2cccc(O)c2C(=O)C2=C(O)[C@]3(O)C(=O)C(C(N)=O)=C(O)[C@@H](N(C)C)[C@@H]3[C@@H](O)[C@@H]21` [D, doxycycline]: the MIC in the data set with E. coli (Escherichia coli, read-out: Single drug treatment MIC) was found to be 50 µM (≈ 22.2 µg/mL); in the data set with MDR A. baumannii 2982 (setting [2]) it was 50 µM; in the data set on MDR A. baumannii 14B001 (setting [2]), 50 µM; with MDR A. baumannii 1607 (setting [2]) it was 100 µM; in the data set with MDR A. baumannii 2962 (setting [2]), 100 µM; with MDR A. baumannii 1702 (setting [2]), 50 µM. The MIC with MDR A. baumannii 921 (setting [2]) amounted to 200 µM; in the data set on MDR A. baumannii 1019 (setting [2]), 100 µM; in the data set on MDR A. baumannii 2088 (setting [2]), 100 µM; in the data set with MDR A. baumannii 3618 (setting [2]), 100 µM; with MDR A. baumannii 2997 (setting [2]), 50 µM; in the data set with MDR A. baumannii 1033 (setting [2]), 50 µM. The MIC in the data set with MDR A. baumannii 2998 (setting [2]) stood at 50 µM; with NDM1 K. pneumoniae (Klebsiella pneumoniae, read-out: Single drug treatment MIC), 25 µM (≈ 11.1 µg/mL); with P. aeruginosae (Pseudomonas aeruginosa, read-out: Single drug treatment MIC) it was 6.25 µM (≈ 2.78 µg/mL); with E. aerogenes (Klebsiella aerogenes, read-out: Single drug treatment MIC) it was 3.13 µM (≈ 1.39 µg/mL); with S enterica (Salmonella enterica, read-out: Single drug treatment MIC), 6.25 µM. The “TP4-3 and meropenem combined MIC” value in the data set with E. coli (setting [1]) was determined as 0.78 µM; in the data set on MDR A. baumannii 2982 (setting [1]), 25 µM; in the data set on MDR A. baumannii 14B001 (setting [1]) it was 50 µM; with MDR A. baumannii 1607 (setting [1]), 25 µM; in the data set on MDR A. baumannii 2962 (setting [1]) it was 25 µM; in the data set on MDR A. baumannii 1702 (setting [1]), 12.5 µM. The “TP4-3 and meropenem combined MIC” value in the data set with MDR A. baumannii 921 (setting [1]) worked out at 25 µM; in the data set with MDR A. baumannii 1019 (setting [1]) it was 12.5 µM; in the data set with MDR A. baumannii 2088 (setting [1]) it was 12.5 µM; in the data set with MDR A. baumannii 3618 (setting [1]) it was 25 µM; in the data set on MDR A. baumannii 2997 (setting [1]), 25 µM; with MDR A. baumannii 1033 (setting [1]), 12.5 µM. Also, the “TP4-3 and meropenem combined MIC” value in the data set with MDR A. baumannii 2998 (setting [1]) was determined as 12.5 µM; with NDM1 K. pneumoniae (setting [1]), 3.13 µM; in the data set on P. aeruginosae (setting [1]) it was 12.5 µM; in the data set on E. aerogenes (setting [1]), 0.78 µM; in the data set with S enterica (setting [1]), 1.56 µM.
